Laboratory results reported in ChEMBL document CHEMBL1128813, “Inhibitors of glucosidases with related structures and inverse specificity” (Bioorg Med Chem Lett, 1995).

What was measured:
[1] = Inhibitory activity against Beta-glucosidase from Almond; parameters: species or system Prunus dulcis
[2] = Inhibitory activity against Beta-glucosidase from Yeast; parameters: species or system Saccharomyces cerevisiae
[3] = Inhibitory activity against Beta-glucosidase from E-coli; parameters: species or system Escherichia coli

Ki [1]	Ki [2]	Structure (SMILES)	Ki [3]
100 µM	–	OCC1O/C(=N\O)C(O)C(O)C1O (centres undefined)	–
80 µM	2.5 µM	O=[N+]([O-])c1ccc(O/N=C2\OC(CO)C(O)C(O)C2O)c([N+](=O)[O-])c1 (centres undefined)	120 µM
